Experimental data from patent US20260217701A1, “SELECTIVE BET INHIBITORS AND USES THEREOF” (Tay Therapeutics Limited, priority 2022, published 2026).
“And” between values parts separate entries of the source, which are not always exact repeats. Equal entries are not always repeated.

Experiment: Dog PK study #3 (Compound A PO once daily 5 days, 5/10/20 mg/kg; PK, body weight, hematology)
Assay type: in vivo, beagle dogs
Parameters: Plasma Concentration: unit not given here
Description: For the third dog pharmacokinetic study, three solutions of different concentrations of Compound A were prepared in 5% DMSO/15% PEG-400/80% (10% VE-TPGS) as outlined in Table 2E. The Compound A solutions were administered to animals orally (PO) once daily over a five-day period. Body weight was recorded prior to dosing, and detailed clinical observations were made prior to dosing and throughout the study, as needed.
Animals were divided into Day 1 and Day 5 sample collection groups, with animals in the Day 1 collection group having blood samples taken prior to dosing and at 0.25, 0.5, 1, 2, 4, 8, and 24 hours after dosing on day 1. Animals in the Day 5 collection group having blood samples taken prior to dosing and at 0.25, 0.5, 1, 2, 4, 8, and 24 hours after dosing on day 5. Study groups are outlined in Table 3D.
Blood samples (~0.3 mL) were collected on day according to the following schedule (0.25, 0.5, 1, 2, 4, 8, and 24 h) after day 5 administration of Compound A by venipuncture of peripheral veins except for the dosing vein, and EDTA-K2 was used as anticoagulant. Within 30 minutes of collection, the samples were centrifuged at approximately 2000 times g-force for 10 minutes at 4° C. to obtain blood plasma. The plasma samples were immediately divided into two aliquots (~75 μL each), transferred to a cryogenic vial, and stored in a freezer at −75±15° C. prior to analysis.
The concentration of Compound A in the blood plasma was determined through LC-MS as previously described. Briefly, the experiments were conducted on a DMPK-LCMS-14-SMBA Triple Quad 6500 Plus instrument with an ACQUITY UPLC BEH C18 1.7 μm (50×2.1 mm) column. The matrix was male beagle dog plasma potassium (K2) EDTA A gradient of 95% water (0.1% formic acid and 2 mM HCOONH4)/95% acetonitrile (0.1% formic acid and 2 mM HCOONH4) was used as the mobile phase. The sample flow rate was 0.6 mL/min.
The samples were then vortex-mixed for 10 minutes at 800 rpm and centrifuged for 15 minutes at 3220×g at 4° C. 50 μL aliquots of supernatant were transferred to a clean 96-well plate and centrifuged for 5 minutes at 3220×g at 4° C. Samples were then injected into the LC/MS/MS system for quantitative analysis.
The gathered data were used for pharmacokinetic calculations using T1/2, CO, AUClast, AUCinf, MRTinf, Cl, Vss, and Number of Points for Regression as parameters.
The cell composition (hematology) of blood samples was analyzed at day 5. Analyses identified the total number of white blood cells, neutrophils, lymphocytes, monocytes, eosinophils, basophils, and platelets in collected samples.

[1] = Day 1, 5 mg/kg dose PO, individual animals
[2] = Day 1, 10 mg/kg dose PO, individual animals
[3] = Day 1, 20 mg/kg dose PO, individual animals
[4] = Day 1, Group 1, individual animals
[5] = Day 1, Group 2, individual animals
[6] = Day 1, Group 3, individual animals
[7] = Day 2, Group 1, individual animals
[8] = Day 2, Group 2, individual animals
[9] = Day 2, Group 3, individual animals
[10] = Day 3, Group 1, individual animals
[11] = Day 3, Group 2, individual animals
[12] = Day 3, Group 3, individual animals
[13] = Day 4, Group 1, individual animals
[14] = Day 4, Group 2, individual animals
[15] = Day 4, Group 3, individual animals
[16] = Day 5, 5 mg/kg dose PO, individual animals

## Cn1cc(-c2ccccc2)c(-c2cn(C)c(=O)c3[nH]c(-c4cnn(C(F)(F)F)c4)cc23)cc1=O [Compound A, 6-methyl-4-(1-methyl-2-oxo-5-phenyl-1,2-dihydropyridin-4-yl)-2-(1-(trifluoromethyl)-1H-pyrazol-4-yl)-1,6-dihydro-7H-pyrrolo[2,3-c]pyridin-7-one]
Day 1, 5 mg/kg dose PO, time 0, individual animals
  Plasma Concentration: BQL
Day 1, 5 mg/kg dose PO, time 0.25, individual animals
  Plasma Concentration: 9.79 and 28.1
Day 1, 5 mg/kg dose PO, time 0.25, mean
  Plasma Concentration: 18.9
Day 1, 5 mg/kg dose PO, time 0.5, individual animals
  Plasma Concentration: 206 and 326
Day 1, 5 mg/kg dose PO, time 0.5, mean
  Plasma Concentration: 266
Day 1, 5 mg/kg dose PO, time 1, individual animals
  Plasma Concentration: 523 and 590
Day 1, 5 mg/kg dose PO, time 1, mean
  Plasma Concentration: 557
Day 1, 5 mg/kg dose PO, time 2, individual animals
  Plasma Concentration: 587 and 671
Day 1, 5 mg/kg dose PO, time 2, mean
  Plasma Concentration: 629
Day 1, 5 mg/kg dose PO, time 4, individual animals
  Plasma Concentration: 765 and 686
Day 1, 5 mg/kg dose PO, time 4, mean
  Plasma Concentration: 726
Day 1, 5 mg/kg dose PO, time 8, individual animals
  Plasma Concentration: 785 and 424
Day 1, 5 mg/kg dose PO, time 8, mean
  Plasma Concentration: 605
Day 1, 5 mg/kg dose PO, time 24, individual animals
  Plasma Concentration: 166 and 58.7
Day 1, 5 mg/kg dose PO, time 24, mean
  Plasma Concentration: 112
[1]
  AUC0-last: 7398 ng·h/mL
  AUCExtra: 6.05%
  AUMCExtra: 20.9%
  Cl_F: 10.6 mL/min/kg
  Cmax: 686 ng/mL
  MRT0-last: 7.83 h
  Tlast: 24.0 h
  Vz_F: 5.16 L/kg
Day 1, 5 mg/kg dose PO, mean
  AUC0-last: 9495 ng·h/mL
  Tlast: 24.0 h
Day 1, 10 mg/kg dose PO, time 0, individual animals
  Plasma Concentration: BQL
Day 1, 10 mg/kg dose PO, time 0.25, individual animals
  Plasma Concentration: 310 and 258
Day 1, 10 mg/kg dose PO, time 0.25, mean
  Plasma Concentration: 284
Day 1, 10 mg/kg dose PO, time 0.5, individual animals
  Plasma Concentration: 948 and 954
Day 1, 10 mg/kg dose PO, time 0.5, mean
  Plasma Concentration: 951
Day 1, 10 mg/kg dose PO, time 1, individual animals
  Plasma Concentration: 1330 and 1260
Day 1, 10 mg/kg dose PO, time 1, mean
  Plasma Concentration: 1295
Day 1, 10 mg/kg dose PO, time 2, individual animals
  Plasma Concentration: 1820 and 1450
Day 1, 10 mg/kg dose PO, time 2, mean
  Plasma Concentration: 1635
Day 1, 10 mg/kg dose PO, time 4, individual animals
  Plasma Concentration: 2010 and 1380
Day 1, 10 mg/kg dose PO, time 4, mean
  Plasma Concentration: 1695
Day 1, 10 mg/kg dose PO, time 8, individual animals
  Plasma Concentration: 1080 and 860
Day 1, 10 mg/kg dose PO, time 8, mean
  Plasma Concentration: 970
Day 1, 10 mg/kg dose PO, time 24, individual animals
  Plasma Concentration: 138 and 134
Day 1, 10 mg/kg dose PO, time 24, mean
  Plasma Concentration: 136
[2]
  AUC0-last: 15568 ng·h/mL
  AUC(0-inf): 16719 ng·h/mL
  AUCExtra: 5.08% and 6.88%
  AUMCExtra: 18.2% and 23.5%
  Cl_F: 8.12 mL/min/kg and 9.97 mL/min/kg
  Cmax: 1450 ng/mL
  MRT0-inf: 9.54 h
  MRT0-last: 7.84 h
  Tlast: 24.0 h
  T½: 5.95 h
  Vz_F: 3.68 L/kg and 5.14 L/kg
Day 1, 10 mg/kg dose PO, mean
  AUC0-last: 17527 ng·h/mL
  AUCExtra: 5.98%
  AUMCExtra: 20.9%
  Cl_F: 9.04 mL/min/kg
  Tlast: 24.0 h
  Vz_F: 4.41 L/kg
Day 1, 20 mg/kg dose PO, time 0, individual animals
  Plasma Concentration: BQL
Day 1, 20 mg/kg dose PO, time 0.25, individual animals
  Plasma Concentration: 413 and 438
Day 1, 20 mg/kg dose PO, time 0.25, mean
  Plasma Concentration: 426
Day 1, 20 mg/kg dose PO, time 0.5, individual animals
  Plasma Concentration: 2090 and 1440
Day 1, 20 mg/kg dose PO, time 0.5, mean
  Plasma Concentration: 1765
Day 1, 20 mg/kg dose PO, time 1, individual animals
  Plasma Concentration: 3430 and 3440
Day 1, 20 mg/kg dose PO, time 1, mean
  Plasma Concentration: 3435
Day 1, 20 mg/kg dose PO, time 2, individual animals
  Plasma Concentration: 3620 and 5590
Day 1, 20 mg/kg dose PO, time 2, mean
  Plasma Concentration: 4605
Day 1, 20 mg/kg dose PO, time 4, individual animals
  Plasma Concentration: 4330 and 6000
Day 1, 20 mg/kg dose PO, time 4, mean
  Plasma Concentration: 5165
Day 1, 20 mg/kg dose PO, time 8, individual animals
  Plasma Concentration: 3170 and 4570
Day 1, 20 mg/kg dose PO, time 8, mean
  Plasma Concentration: 3870
Day 1, 20 mg/kg dose PO, time 24, individual animals
  Plasma Concentration: 394 and 1810
Day 1, 20 mg/kg dose PO, time 24, mean
  Plasma Concentration: 1102
[3]
  AUC0-last: 86304 ng·h/mL
  AUC(0-inf): 52608 ng·h/mL and 116806 ng·h/mL
  AUCExtra: 6.10% and 26.1%
  AUMCExtra: 20.3% and 58.8%
  Cl_F: 6.34 mL/min/kg and 2.85 mL/min/kg
  Cmax: 6000 ng/mL
  MRT0-inf: 18.1 h
  MRT0-last: 10.1 h
  Tlast: 24.0 h
  T½: 5.64 h and 11.7 h
  Vz_F: 3.09 L/kg and 2.89 L/kg
Day 1, 20 mg/kg dose PO, mean
  AUC0-last: 67852 ng·h/mL
  AUCExtra: 16.1%
  AUMCExtra: 39.6%
  Cl_F: 4.59 mL/min/kg
  Tlast: 24.0 h
  Vz_F: 2.99 L/kg
[4]
  Animal body weight: 8.38 kg and 8.88 kg
  Clinical Observation: None
Day 1, Group 1, mean
  Animal Body Weight, Mean: 8.63 kg
[5]
  Animal body weight: 8.36 kg and 9.37 kg
  Clinical Observation: None
Day 1, Group 2, mean
  Animal Body Weight, Mean: 8.87 kg
[6]
  Animal body weight: 9.24 kg and 8.79 kg
  Clinical Observation: None
Day 1, Group 3, mean
  Animal Body Weight, Mean: 9.02 kg
[7]
  Animal body weight: 8.44 kg and 9.33 kg
  Clinical Observation: None
Day 2, Group 1, mean
  Animal Body Weight, Mean: 8.89 kg
[8]
  Animal body weight: 9.63 kg and 8.65 kg
  Clinical Observation: None
Day 2, Group 2, mean
  Animal Body Weight, Mean: 9.14 kg
[9]
  Animal body weight: 9.44 kg and 9.25 kg
  Clinical Observation: None
Day 2, Group 3, mean
  Animal Body Weight, Mean: 9.35 kg
[10]
  Animal body weight: 8.45 kg and 9.29 kg
  Clinical Observation: None
Day 3, Group 1, mean
  Animal Body Weight, Mean: 8.87 kg
[11]
  Animal body weight: 9.5 kg and 8.69 kg
  Clinical Observation: None
Day 3, Group 2, mean
  Animal Body Weight, Mean: 9.10 kg
[12]
  Animal body weight: 9.32 kg and 8.96 kg
  Clinical Observation: None
Day 3, Group 3, mean
  Animal Body Weight, Mean: 9.14 kg
[13]
  Animal body weight: 8.45 kg and 9.29 kg
  Clinical Observation: None
Day 4, Group 1, mean
  Animal Body Weight, Mean: 8.87 kg
[14]
  Animal body weight: 9.43 kg and 8.6 kg
  Clinical Observation: None
Day 4, Group 2, mean
  Animal Body Weight, Mean: 9.02 kg
[15]
  Animal body weight: 9.13 kg and 8.6 kg
  Clinical Observation: None
Day 4, Group 3, mean
  Animal Body Weight, Mean: 8.87 kg
Day 5, 5 mg/kg dose PO, time 1, individual animals
  Plasma Concentration: 1120 and 910
Day 5, 5 mg/kg dose PO, time 1, mean
  Plasma Concentration: 1015
Day 5, 5 mg/kg dose PO, time 2, individual animals
  Plasma Concentration: 1270 and 1040
Day 5, 5 mg/kg dose PO, time 2, mean
  Plasma Concentration: 1155
Day 5, 5 mg/kg dose PO, time 4, individual animals
  Plasma Concentration: 1180 and 878
Day 5, 5 mg/kg dose PO, time 4, mean
  Plasma Concentration: 1029
Day 5, 5 mg/kg dose PO, time 8, individual animals
  Plasma Concentration: 823 and 650
Day 5, 5 mg/kg dose PO, time 8, mean
  Plasma Concentration: 737
Day 5, 5 mg/kg dose PO, time 24, individual animals
  Plasma Concentration: 400
[16]
  AUC0-last: 11297 ng·h/mL
  AUC(0-inf): 25554 ng·h/mL and 12279 ng·h/mL
  AUCExtra: 30.4% and 8.00%
  AUMCExtra: 65.9% and 26.4%
  Cl_F: 3.26 mL/min/kg and 6.79 mL/min/kg
  Cmax: 1040 ng/mL
  MRT0-last: 8.08 h
  Tlast: 24.0 h
  T½: 13.5 h and 6.42 h
  Vz_F: 3.82 L/kg and 3.77 L/kg
Day 5, 5 mg/kg dose PO, mean
  AUC0-last: 14544 ng·h/mL
  AUCExtra: 19.2%
  AUMCExtra: 46.2%
  Cl_F: 5.02 mL/min/kg
  Tlast: 24.0 h
  Vz_F: 3.79 L/kg
Day 5, 5 mg/kg/day (mean), range 0.00-0.19
  Basophils: 0.08 10^3/μL
Day 5, 5 mg/kg/day (mean), range 0.00-1.24
  Eosinophils: 0.38 10^3/μL
Day 5, 5 mg/kg/day (mean), range 0.11-1.08
  Monocytes: 0.31 10^3/μL
Day 5, 5 mg/kg/day (mean), range 1.42-3.76
  Lymphocytes: 2.72 10^3/μL
